This is an account of results in patent publication EP0197661A2, “Low-calorie sugar composition” (Takeda Chemical Industries, Ltd., priority 1985, dated 1986).

Structures are written as SMILES. Marks after values point to notes of the source that are not given here.

The assay relates to Male rats (Jcl:SD strain). The assay is described as follows: Oral sucrose loading in fasted rats with varying dosage of AO-128; blood glucose level. The class given is in vivo. As to conditions: rats fasted 20 hours, mean ± standard deviation. As to the method:
Male rats (Jcl:SD strain, purchased from Clea Japan) aged 6 weeks, which had been raised on commercially available pelleted rat chow (CE-2®, Clea Japan), were fasted for 20 hours and, then, administered orally with 2.5 g/kg of sucrose containing a varying dosage of AO-128. The blood glucose level was determined 30, 60 and 120 minutes after administration.

The mark [1] stands for this setting: AO-128 0.1mg/Kg with 2.5 g/kg sucrose orally.
Setting [2] is: AO-128 0.2mg/Kg with 2.5 g/kg sucrose orally.
Setting [3] is: AO-128 0.4mg/Kg with 2.5 g/kg sucrose orally.

As to `OCC(CO)N[C@H]1C[C@](O)(CO)[C@@H](O)[C@H](O)[C@H]1O` [AO-128, N-(l,3-dihydroxy-2-propyl)valiolamine], under setting [1], the “Blood glucose level 0 min.” value came out at 69 ± 4 mg/dL, the “Blood glucose level 60 min.” value is 101±2^a mg/dℓ, the “Blood glucose level 120 min.” value is on record as 88±3^a mg/dℓ and the Delta glucose area was 52±5^b mg/dℓ·hr. Further, under setting [2], the “Blood glucose level 30 min.” value is listed as 102±6^b mg/dℓ and the Delta glucose area is 38±7^a mg/dℓ·hr. Also, under setting [3], the “Blood glucose level 0 min.” value came out at 67 ± 4 mg/dL, the “Blood glucose level 30 min.” value was 79±2^a mg/dℓ, the “Blood glucose level 60 min.” value was 77±5^a mg/dℓ and the “Blood glucose level 120 min.” value was 71±5^a mg/dℓ.
